Patent US12466849B2, “Anti-viral and anti-tumoral compounds” (YEDA RESEARCH AND DEVELOPMENT CO. LTD, priority 2020, dated 2025)
pEC50, pIC50: −log10 of the molar value. Where two headings read alike, the source gives them in different places.

How the values were obtained:
[1] = tested on: BK virus (BKV), Gardner strain
JC virus (JCV) [2] = tested on: JC virus (JCV)
[3] = human; for CLhep / Eh / Peak area ratio, parent: 1 μM
[4] = rat; for CLhep / Eh: 1 μM; for Peak area ratio, parent: 1 µM
in vivo = details: male, Sprague-Dawley, rat; for AUC(0-inf): AUCInf; for AUC(0-t): AUClast; for MRT inf: MRTInf
in vitro [5] = details: human
in vitro [6] = details: African green monkey
in vitro [7] = details: human; for half-life at 1 μM: s9, T1/2
in vitro [8] = details: rat; for half-life at 1 μM: s9, T1/2
in vitro [9] = details: both, human, plasma
in vitro [10] = details: male, SD, rat, plasma
[11] = tested on: BK virus (BKV), Gardner strain; experiment: microbe, parasite or virus in culture; details: Betapolyomavirus hominis, HFF
JC virus (JCV) [12] = experiment: microbe, parasite or virus in culture; details: JC polyomavirus, COS-7
[13] = Rat plasma pharmacokinetics after IV infusion and PO dose; details: rats; 10 mg/kg IV 2-h infusion and PO
HCMV AD169 = experiment: HCMV plaque reduction assay, MRC-5 cells, strain AD169; format: cell-based, Human cytomegalovirus
HFF cells = experiment: Cell proliferation assay, human foreskin fibroblast (HFF) cells; format: cell-based; details: Homo sapiens, 72 h, cell number
in vitro [14] = details: human; remark: listed apart in the source
[15] = Secondary JCV assay (qPCR), COS7 cells; details: African green monkey
JC virus (JCV) [16] = experiment: Secondary JCV assay (qPCR), COS7 cells
[17] = MRC-5 cytotoxicity assay (MTS) and visual cytotoxicity; details: human

**Q.** Which results are given for `CCCCCCCCCCCCCCCCOCCCOP(=O)(O)CO[C@H](CO)Cn1ccc(N)nc1=O` [BCV, Brincidofovir]?
**A.** activity against BK virus (in words) [1]: high or moderate activity; activity against JC virus (in words) (JC virus (JCV) [2]): high or moderate activity; CLhep [3]: 9.5 mL/min/kg; Eh [3]: 31%; CLhep [4]: 11.5 mL/min/kg; Eh [4]: 16%; concentration at 0.5 h (in vivo; iv, 10 mg/kg): 3400 nM; concentration at 1 h (in vivo; iv, 10 mg/kg): 3200 nM; concentration at 2 h (in vivo; iv, 10 mg/kg): 3660 nM; concentration at 4 h (in vivo; iv, 10 mg/kg): 45 nM; concentration at 8 h (in vivo; iv, 10 mg/kg): 9 nM; concentration at 24 h (in vivo; iv, 10 mg/kg): 6 nM; AUC(0-inf) (in vivo; iv, 10 mg/kg): 9.01 µM·h; AUC(0-t) (in vivo; iv, 10 mg/kg): 8.98 µM·h; clearance (in vivo; iv, 10 mg/kg, CL): 33.3 mL/min/kg; Cmax (in vivo; iv, 10 mg/kg): 3760 nM; MRT inf (in vivo; iv, 10 mg/kg): 1.9 h; Vd (in vivo; iv, 10 mg/kg, Vss): 3.7 L/kg; half-life (in vivo; iv, 10 mg/kg, t1/2): 0.8 h; half-life (in vivo; iv, t1/2 in plasma): < 1 h; bioavailability (in vivo; po, 10 mg/kg): 11%; concentration at 0.5 h (in vivo; po, 10 mg/kg): 21 nM; concentration at 1 h (in vivo; po, 10 mg/kg): 25 nM; concentration at 2 h (in vivo; po, 10 mg/kg): 42 nM; concentration at 4 h (in vivo; po, 10 mg/kg): 39 nM; concentration at 8 h (in vivo; po, 10 mg/kg): 11 nM; AUC(0-inf) (in vivo; po, 10 mg/kg): 1.2 µM·h; AUC(0-t) (in vivo; po, 10 mg/kg): 1.17 µM·h; Cmax (in vivo; po, 10 mg/kg): 141 nM; MRT inf (in vivo; po, 10 mg/kg): 6.9 h; half-life (in vivo; po, 10 mg/kg, t1/2): 4.2 h; Tmax (in vivo; po, 10 mg/kg, tmax): 4 h; CC50 (in vitro [5]): > 10 µM; CC50 (in vitro [6]): 9.25 µM; half-life at 1 μM (in vitro [7]): 4.1 h; half-life at 1 μM (in vitro [8]): 7.68 h; half-life at 0.75 μM (in vitro [9]): > 9.3 h; half-life at 0.75 μM (in vitro [10]): > 9.3 h; pEC50 [11]: 7.22; EC90 [11]: 0.39 µM; pEC50 (JC virus (JCV) [12]): 6.13; EC90 (JC virus (JCV) [12]): 1.85 µM; tolerability / adverse events (AE) [13]: well-tolerated

**Q.** With `CCCCCCCCCCCCCCCCOCCCOP(=O)(O)OCC1=CC(O)C(n2ccc(=O)[nH]c2=O)O1` (stereo not drawn) [AB23039] as the compound, how does the pEC50 (HCMV AD169; Human betaherpesvirus 5, 144 h, hCMV AD169, MRC5 cells, plaque assay, 6-days duration) read?
**A.** 4.74

**Q.** And the “antiviral activity against hCMV (in words)” value (HCMV AD169; MRC5 cells, AD169 strain)?
**A.** impressive antiviral activity

**Q.** What about the “Selectivity Index (CC50/EC50)” value (HCMV AD169; hCMV AD169, MRC5 cells) of the same compound?
**A.** 2.33

**Q.** What about the pIC50 (HFF cells) of the same compound?
**A.** < 4.00

**Q.** What about the Activity [1] of the same compound?
**A.** HI (key: NA (Not Active) SI50 = 0-3.9; LO (Slightly Active) SI50 = 4-9.9; MOD (Moderately Active) SI50 = 10-19.9; HI (Highly Active) SI50 = ≥20)

**Q.** And the “activity against BK virus (in words)” value [1]?
**A.** high activity

**Q.** What about the Activity (JC virus (JCV) [2]) of the same compound?
**A.** HI (key: NA (Not Active) SI50 = 0-3.9; LO (Slightly Active) SI50 = 4-9.9; MOD (Moderately Active) SI50 = 10-19.9; HI (Highly Active) SI50 = ≥20)

**Q.** And the “activity against JC virus (in words)” value (JC virus (JCV) [2])?
**A.** high activity

**Q.** What about the CLhep [3] of the same compound?
**A.** 9.1 mL/min/kg

**Q.** What about the Eh [3] of the same compound?
**A.** 44%

**Q.** What about the “Peak area ratio, parent” value ([3]; 15 min) of the same compound?
**A.** 3.41E−01

**Q.** What about the “Peak area ratio, parent” value ([3]; 60 min) of the same compound?
**A.** 3.09E−01

**Q.** And the “hydrolytic stability in hepatic S9 (in words)” value ([3]; s9)?
**A.** most stable

**Q.** What about the T1/2 ([3]; s9, 1 μM) of the same compound?
**A.** 4.42 h

**Q.** What about the CLhep [4] of the same compound?
**A.** 14.3 mL/min/kg

**Q.** What about the Eh [4] of the same compound?
**A.** 26%

**Q.** What about the “Peak area ratio, parent” value ([4]; 15 min) of the same compound?
**A.** 3.61E−01

**Q.** And the “Peak area ratio, parent” value ([4]; 60 min)?
**A.** 3.25E−01

**Q.** What about the “hydrolytic stability in hepatic S9 (in words)” value ([4]; s9) of the same compound?
**A.** most stable

**Q.** What about the T1/2 ([4]; s9, 1 μM) of the same compound?
**A.** 5.78 h

**Q.** And the CC50 (in vitro [5])?
**A.** 90.9 µM

**Q.** And the CC50 (in vitro [6])?
**A.** 71.8 µM

**Q.** What about the microsomal CLint at 1 μM (in vitro [7]; s9) of the same compound?
**A.** 5.2 µL/min/mg

**Q.** What about the half-life at 1 μM (in vitro [7]) of the same compound?
**A.** 4.41 h

**Q.** And the microsomal CLint at 1 μM (in vitro [8]; s9)?
**A.** 4 µL/min/mg

**Q.** And the half-life at 1 μM (in vitro [8])?
**A.** 5.79 h

**Q.** And the half-life at 0.75 µM (in vitro [9])?
**A.** > 9.32 h

**Q.** And the half-life at 0.75 μM (in vitro [9])?
**A.** > 9.3 h

**Q.** And the half-life at 0.75 µM (in vitro [10])?
**A.** > 9.32 h

**Q.** And the half-life at 0.75 μM (in vitro [10])?
**A.** > 9.3 h

**Q.** And the CC50 at 7 d (in vitro [14])?
**A.** > 150 µM

**Q.** What about the pEC50 [11] of the same compound?
**A.** 6.07

**Q.** And the EC90 [11]?
**A.** 7.76 µM

**Q.** And the pEC50 (JC virus (JCV) [12])?
**A.** 6.68

**Q.** And the EC90 (JC virus (JCV) [12])?
**A.** 23.4 µM

**Q.** And the CC50 at 7 days [15]?
**A.** 46.8 µM

**Q.** What about the pEC50 (JC virus (JCV) [16]; JC polyomavirus, COS-7, 168 h) of the same compound?
**A.** 5.51

**Q.** What about the EC90 (JC virus (JCV) [16]; JC polyomavirus, COS-7, 168 h) of the same compound?
**A.** 9.44 µM

**Q.** What about the Activity (JC virus (JCV) [16]; secondary JCV assay, COS7 cells, class by SI50) of the same compound?
**A.** MOD (MOD (Moderately Active) SI50 = 10-19.9)

**Q.** And the “antiviral activity against JCV (in words)” value (JC virus (JCV) [16]; secondary testing, COS7 cells)?
**A.** moderate

**Q.** And the CC50 at 6 days [17]?
**A.** 42.2 µM
